The results in this text go back to ChEMBL document CHEMBL5032528, “Development of novel tetrahydroisoquinoline-hydroxamate conjugates as potent dual SERDs/HDAC inhibitors for the treatment of breast cancer” (Eur J Med Chem, 2021).

Calls of active or inactive are those of the source.

Series [1] has as its system MCF7. Nature of the series: Antiproliferative activity against human MCF7 cells assessed as reduction in cell growth measured after 6 days by WST8 assay. It is filed as functional. Conditions: time 6 day. Background: Tetrazolium assays rely on reduction of a dye to a coloured formazan, in cell work by metabolically active cells.
In series [2] the target is T1, Estrogen receptor (Homo sapiens) (UniProt P03372).
T1 sequence (whole entry): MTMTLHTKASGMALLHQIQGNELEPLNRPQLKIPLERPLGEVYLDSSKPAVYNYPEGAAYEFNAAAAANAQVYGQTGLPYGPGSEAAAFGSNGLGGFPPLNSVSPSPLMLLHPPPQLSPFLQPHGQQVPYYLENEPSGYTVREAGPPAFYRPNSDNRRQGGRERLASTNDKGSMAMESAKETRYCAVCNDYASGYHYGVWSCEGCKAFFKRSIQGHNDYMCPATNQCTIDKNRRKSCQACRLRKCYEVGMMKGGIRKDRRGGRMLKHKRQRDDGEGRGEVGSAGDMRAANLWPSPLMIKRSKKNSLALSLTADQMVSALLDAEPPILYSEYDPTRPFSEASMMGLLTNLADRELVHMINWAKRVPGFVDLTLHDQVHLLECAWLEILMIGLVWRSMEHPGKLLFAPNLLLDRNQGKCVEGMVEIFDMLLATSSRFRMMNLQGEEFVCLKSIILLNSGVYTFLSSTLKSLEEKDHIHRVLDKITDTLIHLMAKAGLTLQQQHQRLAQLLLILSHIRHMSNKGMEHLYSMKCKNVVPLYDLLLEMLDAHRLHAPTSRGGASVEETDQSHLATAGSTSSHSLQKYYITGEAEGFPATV
Nature of the series: Induction of ERalpha degradation in human MCF7 cells at 0.1 uM measured after 24 hrs by Western blot analysis. In kind it is cell-based. Background: In western blotting, separated proteins are transferred to a membrane and probed.

The target of series [3] is T2, Estrogen receptor (Homo sapiens, UniProt P03372).
T2 sequence (P03372 whole entry): T1 sequence (whole entry)
The series is described as follows: Displacement of fluorescent estradiol from full-length ERalpha (unknown origin) measured after 2 hrs by fluorescence polarization assay. On the technique in general: In fluorescence polarisation assays a small probe gives low polarisation when free and higher when bound to something large.

A short description of series [4]: Lipophilicity, logD of compound in n-octanol and phosphate buffer at pH 7.4 after 1.5 hrs by HPLC analysis. In kind it is physicochemical.
Series [5] relates to Ishikawa. The series is described as follows: Induction of human ishikawa cells proliferation at 300 nM measured after 48 hrs by CCK8 assay. In kind it is functional.
The nature of series [6]: Stability in human liver microsomes assessed as half life. It is filed as ADME, Microsome.
Series [7] can be described thus: in vitro. To be noted: human, liver microsomes.
Series [8] deals with T3, Protein deacetylase HDAC6 (Homo sapiens, UniProt Q9UBN7).
T3 sequence (Q9UBN7 whole entry): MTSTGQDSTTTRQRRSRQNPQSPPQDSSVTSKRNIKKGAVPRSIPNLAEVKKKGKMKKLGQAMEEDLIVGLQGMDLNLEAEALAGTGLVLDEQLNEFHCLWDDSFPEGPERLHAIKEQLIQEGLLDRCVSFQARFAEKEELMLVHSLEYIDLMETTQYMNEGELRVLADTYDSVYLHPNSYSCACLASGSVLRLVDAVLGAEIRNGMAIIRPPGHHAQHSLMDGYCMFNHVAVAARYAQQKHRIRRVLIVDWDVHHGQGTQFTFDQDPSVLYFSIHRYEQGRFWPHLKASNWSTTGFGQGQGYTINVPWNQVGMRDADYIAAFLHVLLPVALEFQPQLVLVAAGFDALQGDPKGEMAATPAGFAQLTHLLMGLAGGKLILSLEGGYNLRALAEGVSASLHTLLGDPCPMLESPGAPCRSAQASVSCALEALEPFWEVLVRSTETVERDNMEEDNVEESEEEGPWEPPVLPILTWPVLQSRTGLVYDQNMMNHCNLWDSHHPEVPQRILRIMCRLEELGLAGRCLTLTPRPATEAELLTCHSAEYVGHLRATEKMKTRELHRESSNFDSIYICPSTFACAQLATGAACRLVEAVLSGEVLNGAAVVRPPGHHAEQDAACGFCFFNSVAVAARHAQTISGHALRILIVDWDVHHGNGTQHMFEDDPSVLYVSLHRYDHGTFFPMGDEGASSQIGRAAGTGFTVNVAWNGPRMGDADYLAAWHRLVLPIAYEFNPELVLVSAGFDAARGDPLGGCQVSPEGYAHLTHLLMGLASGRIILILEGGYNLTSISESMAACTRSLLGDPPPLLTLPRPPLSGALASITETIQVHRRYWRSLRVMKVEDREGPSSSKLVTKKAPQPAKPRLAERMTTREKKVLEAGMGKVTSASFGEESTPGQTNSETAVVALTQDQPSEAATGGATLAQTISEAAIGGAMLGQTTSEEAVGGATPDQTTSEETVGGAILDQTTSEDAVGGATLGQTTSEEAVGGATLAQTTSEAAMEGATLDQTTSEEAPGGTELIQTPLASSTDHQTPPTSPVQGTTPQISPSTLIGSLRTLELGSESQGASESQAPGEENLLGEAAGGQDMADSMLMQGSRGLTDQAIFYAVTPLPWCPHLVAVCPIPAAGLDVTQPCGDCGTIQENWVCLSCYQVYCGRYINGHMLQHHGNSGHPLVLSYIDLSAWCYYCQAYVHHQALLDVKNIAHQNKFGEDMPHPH
The series is described as follows: Inhibition of HDAC6 (unknown origin) using Ac-peptide as substrate preincubated for 15 mins followed by substrate addition and measured after 60 mins by fluorescence assay.

Series [9] can be described thus: Toxicity in Balb/c mouse xenografted with human MCF7 cells assessed as change in organ morphology at 5 mg/kg/day, iv administered for 21 days by H and E staining based analysis. It is filed as organism-based. To be noted: in vivo, 504 h, time 21 day.
The subject of series [10] is MCF7. Nature of the series: Induction of apoptosis in human MCF7 cells at 0.1 uM incubated for 24 hrs by PI staining based flow cytometry analysis. It is filed as functional, cell-based.
Series [11] concerns the target T1, Estrogen receptor (Homo sapiens). The series is described as follows: Inhibition of ERalpha signaling in human MCF7 cells measured after 24 hrs by Western blot assay. Conditions: dose 10-10000 nM. It is filed as cell-based.
The nature of series [12]: Stability in human plasma assessed as half life. In kind it is ADME, cell-free.
Series [13] deals with T1, Estrogen receptor (Homo sapiens). Nature of the series: Antagonist activity at ERalpha activity in human ishikawa cells assessed as reduction in PGR mRNA expression at 10 to 300 nM for 24 hrs. It is filed as cell-based. To be noted: filed as antagonist, dose 10-300 nM.
The test system of series [14] is Mus musculus. Nature of the series: In vivo induction of ERalpha degradation in human […] cells xenografted in BALB/c mouse assessed as decrease in ERalpha level at 5 mg/kg/day, iv administered for 21 days by Western blot analysis. To be noted: time 21.0 day. It is filed as functional, organism-based.
Series [15] addresses T1, Estrogen receptor (Homo sapiens). The series is described as follows: Inhibition of ERalpha signaling in human MCF7 cells at 1 uM measured after 24 hrs by Western blot assay. It is filed as cell-based.
Series [16] shares this target. The series is described as follows: Inhibition of ERalpha signaling in human MCF7 cells at 10 uM measured after 24 hrs by Western blot assay. It is filed as cell-based.
In series [17] the test system is Ishikawa. The series is described as follows: Induction of human ishikawa cells proliferation at 39 to 10000 nM measured after 48 hrs by CCK8 assay. It is filed as functional. Conditions: dose 39-10000 nM.
In series [18] the target is T1, Estrogen receptor (Homo sapiens). The series is described as follows: Antagonist activity at ERalpha in human MCF7 cells assessed as reduction in E2-induced GREB1 gene expression incubated for 24 hrs by qRT-PCR analysis. In kind it is cell-based. To be noted: filed as antagonist, dose 3-300 nM.
Series [19] has as its target Histone deacetylase 4 (Homo sapiens, UniProt P56524). The series is described as follows: Inhibition of HDAC4 (unknown origin).
For series [20], the target named is Histone deacetylase (Homo sapiens) (UniProt Q13547+O15379+Q9UBN7+Q92769+Q9UQL6+Q8WUI4+Q9BY41+Q96DB2+P56524+Q9UKV0+Q969S8). Nature of the series: Inhibition of HDAC in human MDA-MB-231 cells assessed as increase in alpha tubulin acetylation after 24 hrs by immunofluorescence assay. In kind it is cell-based. Conditions: dose 5.0 µM.
Series [21] relates to MDA-MB-231. Nature of the series: Antiproliferative activity against human MDA-MB-231 cells assessed as reduction in cell growth measured after 2 days by CCK8 assay. In kind it is functional, cell-based. To be noted: MDA-MB-231, 48 h.
Series [22] addresses T4, Protein deacetylase HDAC6 (Homo sapiens) (UniProt Q9UBN7).
T4 sequence (whole entry): T3 sequence (Q9UBN7 whole entry)
The series is described as follows: Inhibition of HDAC6 in human MCF7 cells assessed as increase in intracellular acetylation level of alpha-tubulin after 24 hrs by Western blot analysis. Conditions: dose 10-1000 nM. It is filed as cell-based.

The subject of series [23] is MDA-MB-231. The series is described as follows: Antimigratory activity against human MDA-MB-231 cells measured after 48 hrs by scratch wound-healing assay. It is filed as functional, cell-based.
Series [24] addresses T1, Estrogen receptor (Homo sapiens). Nature of the series: Antagonist activity at ERalpha in human MCF7 cells assessed as reduction in E2-induced PGR gene expression incubated for 24 hrs by qRT-PCR analysis. Conditions: filed as antagonist, dose 3-300 nM. In kind it is cell-based.
Series [25] addresses Histone deacetylase 1 (Homo sapiens, UniProt Q13547). The series is described as follows: Inhibition of HDAC1 (unknown origin).
Series [26] concerns MCF7. Nature of the series: Antitumor activity against human MCF7 cells xenografted in BALB/c nude mouse assessed as TGI at 5 mg/kg/day, iv administered for 21 days. It is filed as functional. Conditions: 504 h, time 21 day, read-out: TGI.
Series [27] in a line: Toxicity in Balb/c mouse xenografted with human MCF7 cells assessed as body weight loss at 5 mg/kg/day, iv administered for 21 days. In kind it is organism-based. To be noted: in vivo, 504 h, time 21 day.

As a reminder, the GI50 is the concentration at which growth is held to half of that of the control. As a reminder, the IC50 is the concentration needed to halve the response being measured. A word on the logD: it is lipophilicity at a set pH, counting ionised and neutral species. What is called half-life is the time needed for the level to fall by half in the phase considered. The CLint scaled is the rate of metabolic loss divided by the concentration. A lower CLint scaled goes with greater metabolic stability. What is called inhibition is how much of the control response was suppressed.

Chain of Histone deacetylase 4 (P56524 whole entry): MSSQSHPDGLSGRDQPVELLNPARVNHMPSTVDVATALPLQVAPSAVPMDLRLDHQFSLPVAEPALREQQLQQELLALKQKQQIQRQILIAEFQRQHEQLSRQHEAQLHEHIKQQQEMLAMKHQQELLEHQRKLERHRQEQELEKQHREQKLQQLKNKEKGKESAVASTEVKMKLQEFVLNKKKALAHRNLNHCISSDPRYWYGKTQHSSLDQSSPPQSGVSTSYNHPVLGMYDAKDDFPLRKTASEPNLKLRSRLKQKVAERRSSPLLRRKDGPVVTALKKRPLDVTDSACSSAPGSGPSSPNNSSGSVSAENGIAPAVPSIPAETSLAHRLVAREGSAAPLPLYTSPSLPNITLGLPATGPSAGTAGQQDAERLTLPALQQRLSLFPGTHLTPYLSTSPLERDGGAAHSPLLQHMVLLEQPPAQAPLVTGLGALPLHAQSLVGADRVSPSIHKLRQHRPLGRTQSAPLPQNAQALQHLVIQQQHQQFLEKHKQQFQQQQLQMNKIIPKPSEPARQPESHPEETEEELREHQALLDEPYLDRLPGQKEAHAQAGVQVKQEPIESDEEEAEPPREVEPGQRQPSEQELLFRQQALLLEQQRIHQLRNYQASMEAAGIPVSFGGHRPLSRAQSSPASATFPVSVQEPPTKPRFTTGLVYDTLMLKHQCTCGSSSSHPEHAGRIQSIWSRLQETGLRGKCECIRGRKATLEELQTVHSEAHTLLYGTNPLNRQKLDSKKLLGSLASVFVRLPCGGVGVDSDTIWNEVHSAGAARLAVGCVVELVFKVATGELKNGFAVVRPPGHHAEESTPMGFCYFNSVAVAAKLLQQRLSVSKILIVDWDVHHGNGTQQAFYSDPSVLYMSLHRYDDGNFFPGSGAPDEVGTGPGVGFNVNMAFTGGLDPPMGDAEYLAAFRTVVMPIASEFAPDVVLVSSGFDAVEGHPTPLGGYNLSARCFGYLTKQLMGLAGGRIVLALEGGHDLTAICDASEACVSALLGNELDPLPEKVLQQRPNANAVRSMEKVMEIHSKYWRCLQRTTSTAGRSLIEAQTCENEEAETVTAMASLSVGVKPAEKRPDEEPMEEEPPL
Chain of Histone deacetylase 1 (Q13547 whole entry): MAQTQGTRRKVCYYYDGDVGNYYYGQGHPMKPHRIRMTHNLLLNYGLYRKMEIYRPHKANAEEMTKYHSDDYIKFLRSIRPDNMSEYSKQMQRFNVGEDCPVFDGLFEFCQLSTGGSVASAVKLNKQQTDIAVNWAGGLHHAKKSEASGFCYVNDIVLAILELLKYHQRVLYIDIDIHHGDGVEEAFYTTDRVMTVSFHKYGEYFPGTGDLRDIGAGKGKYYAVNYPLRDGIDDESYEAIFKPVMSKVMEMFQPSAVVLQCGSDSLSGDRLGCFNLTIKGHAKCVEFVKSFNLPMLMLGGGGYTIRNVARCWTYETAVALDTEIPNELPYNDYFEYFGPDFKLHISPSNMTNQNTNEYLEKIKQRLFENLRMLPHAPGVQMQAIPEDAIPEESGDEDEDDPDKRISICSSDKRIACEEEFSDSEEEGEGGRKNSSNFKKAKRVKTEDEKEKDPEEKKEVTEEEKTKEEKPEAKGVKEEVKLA

On to `CC(C)(F)CN1CCc2cc(O)ccc2C1c1ccc(OCCCOc2ccc(C(=O)NO)cc2)cc1` (stereo unspecified), for which, in [1] (Homo sapiens, MCF7, 144 h), the GI50 came to 460 nM. In addition, the outcome in series [2] was inactive. For the same compound, in series [3], the IC50 amounted to 132 nM.

As for `C[C@]12CC[C@@H]3c4ccc(O)cc4C[C@@H](CCCCCCCCC[S+]([O-])CCCC(F)(F)C(F)(F)F)[C@H]3[C@@H]1CC[C@@H]2O` (stereo partly specified) [FULVESTRANT], the GI50 in series [1] (Homo sapiens, MCF7, 144 h) worked out at 540 nM. The compound further gave a logD at 1.5 h in series [4] of 6.8. In addition, the result in series [5] was Active. Also, the half-life in series [6] amounted to 1.56 min. Moreover, the CLint scaled in [7] worked out at 1150 mL/min/kg.

With `CC(C)(F)CN1CCc2cc(O)ccc2C1c1ccc(C(=O)NO)cc1` (stereo unspecified), the GI50 in series [1] (Homo sapiens, MCF7, 144 h) was found to be 230 nM. In series [2], the Activity came out at 5%. For the same compound, in series [3], the IC50 was found to be 96.3 nM.

On to `CC(C)(F)CN1CCc2cc(O)ccc2C1c1ccc(OC2CN(CC(=O)NO)C2)cc1` (stereo unspecified), for which the GI50 in series [1] (Homo sapiens, MCF7, 144 h) turned out to be 1820 nM. Besides, the results for the IC50 in series [8] and in series [3] were 175 nM and 78.2 nM, respectively. Further, the Activity in [2] was 32%.

`CC(C)(F)CN1CCc2cc(O)ccc2C1c1ccc(OCCCCCC(=O)NO)cc1` (stereo unspecified): in [1] (Homo sapiens, MCF7, 144 h), the GI50 is 950 nM. The IC50 worked out at 65.9 nM in [8] and 102 nM in series [3]. This compound registered an Activity in series [2] of 31%.

With `O=C(CCCCCCC(=O)Nc1ccccc1)NO` [VORINOSTAT], the GI50 in series [1] was 1250 nM.

As for `CC(C)(F)CN1CCc2cc(O)ccc2C1c1ccc(OCCCCCCC(=O)NO)cc1` (stereo unspecified), in series [1] (Homo sapiens, MCF7, 144 h), the GI50 came to 170 nM. In addition, in series [4], the logD at 1.5 h was determined as 2.49. Besides, the Activity entry in series [9] was “Non-Toxic”; in [2], 57%; in series [18], “Dose-Dependent Effect”; in series [24] it was “Dose-Dependent Effect”; in series [27], “Non-Toxic”. The IC50 in series [8] is 62.8 nM; in series [19], above 1000 nM; in series [3], 90.8 nM; in series [21], 380 nM; in series [25], 582 nM. Besides, the result in series [10], in series [13] and in series [23] was Active. The inhibition entry is “Dose-Dependent Effect” in series [11], 100% in [16], “Dose-Dependent Effect” in series [20] and “Dose-Dependent Effect” in [22]. For the same compound, the half-life worked out at 458 min in series [12] and 18.8 min in series [6]. Moreover, the inhibition result in series [14] and in [15] was “Active” in each case. In [7], this compound displayed a CLint scaled of 132 mL/min/kg. The outcome in series [17] was inactive. In addition, in [26], the inhibition in vivo at 5 mg/kg/day came to 58%.
